Data: publication PMC8778187, “A New Oxygen Containing Pyclen-Type Ligand as a Manganese(II) Binder for MRI and ^52Mn PET Applications: Equilibrium, Kinetic, Relaxometric, Structural and Radiochemical Studies” (Molecules, 2022)

How the values were obtained:
[1] = Ligand protonation constants by pH-potentiometric titration; assay type: physicochemical; conditions: T = 25 °C, I = 0.15 M NaCl
Method: The protonation constants of H2OPC2A have been determined by pH-potentiometry in 0.15 M NaCl ionic medium, and the constants determined are listed in Table 2, along with the corresponding values determined for structurally similar ligands used as comparative benchmarks (H23,9-PC2A, H23,6-PC2A, H21,4-DO2A, H21,7-DO2A, and H21,7-O2DO2A).
Metal stock solutions were prepared from the highest analytical grade chemicals, and their concentrations were determined by complexometric titration with standardized Na2H2EDTA and eriochrome black T indicator in the presence of ascorbic acid, and potassium hydrogen tartrate for MnCl2, murexide indicator for CaCl2 and CuCl2, eriochrome black T for MgCl2 and xylenol orange in the presence of hexamethylenetetramine for the solution of ZnCl2. The concentration of the ligand stock solution was determined by pH-potentiometric titrations. The protonation constants of the ligand were determined by the pH potentiometric titrations with 0.15 M NaOH, using 0.0025 M ligand solutions. The ionic strength was set to 0.15 M by using NaCl. […]
To avoid the effect of CO2, N2 gas was bubbled through the solutions during the titrations process. […] For the calibration of the pH meter, KH-phtalate (pH = 4.005) and borax (pH = 9.177) buffers were used, and the H^+ ion concentrations were calculated from the measured pH values by applying the method proposed by Irving et al.. […]

[2] = Metal exchange (transmetalation) with Zn(II) followed by T2 relaxometry; assay type: physicochemical
Source text: The kinetic inertness of the complexes considered for in vivo applications is an important parameter. It can be characterized by using various approaches. One of the possibilities is to study the rates of dissociation of the complexes, by following the transmetalation reactions occurring between the complex and the large excess (applied to ensure pseudo-first-order conditions) of a suitable exchanging metal ions (essential metal ions, such as Zn(II) or Cu(II) are often used for this purpose). The rates of dissociation reactions are explored as a function of pH (in a wide pH range) as well as in a wide metal ion concentration range, in order to obtain information about the contribution of various mechanisms (spontaneous, acid-, or metal-assisted dissociation). […] Results obtained for different complexes under the same conditions can be compared, and the order of relative inertness can be accessed rapidly. Finally, in the field of nuclear medicine, the “serum stability” is often determined, which, in fact, reflects dissociation in the blood serum (i.e., the dissociation initiated by the serum components). Upon the dissociation of the complex, the Mn(II) reacts with the serum components (HSA for instance), which results in a considerable relaxivity enhancement caused by the formation of Mn(II) species with a longer rotational correlation time (a remarkable increase in molecular mass). Therefore, ^1H relaxometry is an easily accessible tool for following the transmetalation/transchelation reactions of paramagnetic complexes occurring in blood serum.
Metal exchange reactions occurring with Zn(II) at pH = 6.0: first, we evaluated the rate of the metal exchange reaction occurring with Zn(II) under the conditions proposed by P. Caravan and coworkers, in order to have an idea of how the replacement of the secondary amine group for an etheric oxygen in the rim of the pyclen macrocycle affects the inertness of its corresponding Mn(II) complex. The plot of the 1/T2 values as a function of time for the [Mn(3,9-OPC2A)] and [Mn(3,9-PC2A)] complexes are shown in Figure S26 (Supporting Information). Fitting the measured data for the [Mn(3,9-OPC2A)] by the monoexponential function gives the rate constant kobs = (1.74 ± 0.04) × 10^−5 s^−1.
The inertness of the [Mn(3,9-OPC2A)] complex was studied by various methods. The transmetalation reaction initiated by the Zn(II) ions was monitored by measuring the T2 relaxation times as a function of time at pH = 6.0, set by a 50 mM 2-(N-morpholino)ethanesulfonic acid (MES) buffer in the presence of 25 equivalents of Zn(II) ions at 37 °C. These conditions were recently used by P. Caravan et al., and employed in the present study to obtain data that can be directly compared with that of [Mn(PyC3A)]^– [6].

[3] = pH = 6.0, 25 equivalents of Zn(II), 37 °C

Row | Structure (SMILES) | log K3^H [1] | Σlog Κ2^H ([1]; log K1^H + log K2^H) | kobs ([2]; pH = 6.0 (50 mM MES), 25 equivalents of Zn(II), 37 °C) | kobs lower than that of [Mn(PyC3A)] [2, 3] [times] | kobs smaller than that of [Mn(3,9-PC2A)] [2, 3] | half-life of dissociation at pH = 7.4 ([2]; pH = 7.4, large Zn(II) excess, from the rate constant) [h]
1 | O=C(O)CN1CCOCCN(CC(=O)O)Cc2cccc(n2)C1 [H23,9-OPC2A, 6-Oxa-3,9,15-triazabicyclo(9.3.1)pentadeca-1(15),11,13-triene-3,9-diacetic acid] | 2.13(1) | 15.39 |  |  |  | 
2 | O=C([O-])CN1CCOCCN(CC(=O)[O-])Cc2cccc(n2)C1.[Mn+2] [[Mn(3,9-OPC2A)]] |  |  | (1.74 ± 0.04) × 10^−5 s^−1 | ~40 | circa 20 times | 40.0
